Test results taken from PMC4279406, “Simultaneous targeting of PI3Kδ and a PI3Kδ-dependent MEK1/2-Erk1/2 pathway for therapy in pediatric B-cell acute lymphoblastic leukemia” (Oncotarget, 2014).

Legend:
Experiment in all cases: KinaseProfiler protein kinase activity
Format in all cases: biochemical
Conditions in all cases: 10 μM X-370
ALK = target: T1, ALK (Homo sapiens, UniProt Q9UM73)
T1 construct: purchased Millipore KinaseProfiler
Description: (§1) In vitro kinase profile assays were analyzed by the Kinase Profiler Service (Millipore, United Kingdom) following its guidelines. A GST-tagged human p110δ and regulatory full-length p85 were co-expressed in insect cell Sf9. Recombinant protein was extracted by affinity purification. The PI3K kinase activity was determined in the increasing concentration of ATP and X-370 with PI3-Kinase HTRF™ Assay kit (Millipore) as described previously. […]
(§2) Table S1: Inhibitory activity of X-370 against protein kinases
(§3) kinome at 10 μM. The relative kianse activity left in the presence of 10 μM were shown (Mi llipore
(§4) Kinase activity (% of control) Kinase activity (% of control) Kinase activity (% of control)
(§5) CDK1/cyclinB 97 Lck activated 89 Ret 125

ASK1 = target: T2, ASK1 (Homo sapiens, UniProt Q99683)
T2 construct: purchased Millipore KinaseProfiler
Description: as §1, §2, §3, §4, §5

Axl = target: T3, Axl (Homo sapiens, UniProt P30530)
T3 construct: purchased Millipore KinaseProfiler
Description: as §1, §2, §3, §4, §5

CDK1/cyclinB = target: T4, CDK1/cyclinB (Homo sapiens, UniProt P06493)
T4 construct: purchased Millipore KinaseProfiler
T4 sequence (P06493 whole entry): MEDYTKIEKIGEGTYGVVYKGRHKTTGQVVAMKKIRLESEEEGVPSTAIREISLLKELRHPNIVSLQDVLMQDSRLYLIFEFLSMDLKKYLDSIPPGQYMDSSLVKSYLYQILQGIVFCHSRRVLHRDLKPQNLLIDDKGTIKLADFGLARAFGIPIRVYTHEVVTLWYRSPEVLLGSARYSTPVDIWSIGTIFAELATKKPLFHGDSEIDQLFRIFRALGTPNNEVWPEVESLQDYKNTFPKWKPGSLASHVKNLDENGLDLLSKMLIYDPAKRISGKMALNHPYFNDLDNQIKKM
T4 sequence (P14635 whole entry partner): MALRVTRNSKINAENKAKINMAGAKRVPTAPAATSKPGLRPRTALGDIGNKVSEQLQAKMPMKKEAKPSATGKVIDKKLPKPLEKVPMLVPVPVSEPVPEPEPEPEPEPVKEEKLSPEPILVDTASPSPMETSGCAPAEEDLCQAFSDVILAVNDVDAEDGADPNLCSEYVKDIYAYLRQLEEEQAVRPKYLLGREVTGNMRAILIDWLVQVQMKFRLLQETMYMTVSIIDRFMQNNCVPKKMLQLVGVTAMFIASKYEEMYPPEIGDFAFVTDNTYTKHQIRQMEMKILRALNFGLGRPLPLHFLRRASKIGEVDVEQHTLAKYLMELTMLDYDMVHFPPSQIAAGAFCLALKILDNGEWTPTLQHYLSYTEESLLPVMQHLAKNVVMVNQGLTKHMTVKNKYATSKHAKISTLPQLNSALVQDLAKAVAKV
Description: as §1, §2, §3, §4, §5

CHK1 = target: T5, CHK1 (Homo sapiens, UniProt O14757)
T5 construct: purchased Millipore KinaseProfiler
Description: as §1, §2, §3, §4, §5

CaMKI = target: T6, CaMKI (Homo sapiens, UniProt Q14012)
T6 construct: purchased Millipore KinaseProfiler
Description: as §1, §2, §3, §4, §5

EGFR = target: T7, EGFR (Homo sapiens, UniProt P00533)
T7 construct: purchased Millipore KinaseProfiler
Description: as §1, §2, §3, §4, §5

EphA1 = target: T8, EphA1 (Homo sapiens, UniProt P21709)
T8 construct: purchased Millipore KinaseProfiler
Description: as §1, §2, §3, §4, §5

FGFR1 = target: T9, FGFR1 (Homo sapiens, UniProt P11362)
T9 construct: purchased Millipore KinaseProfiler
Description: as §1, §2, §3, §4, §5

Fyn = target: T10, Fyn (Homo sapiens, UniProt P06241)
T10 construct: purchased Millipore KinaseProfiler
Description: as §1, §2, §3, §4, §5

GSK3 α = target: T11, GSK3 α (Homo sapiens, UniProt P49840)
T11 construct: purchased Millipore KinaseProfiler
T11 sequence (P49840 whole entry): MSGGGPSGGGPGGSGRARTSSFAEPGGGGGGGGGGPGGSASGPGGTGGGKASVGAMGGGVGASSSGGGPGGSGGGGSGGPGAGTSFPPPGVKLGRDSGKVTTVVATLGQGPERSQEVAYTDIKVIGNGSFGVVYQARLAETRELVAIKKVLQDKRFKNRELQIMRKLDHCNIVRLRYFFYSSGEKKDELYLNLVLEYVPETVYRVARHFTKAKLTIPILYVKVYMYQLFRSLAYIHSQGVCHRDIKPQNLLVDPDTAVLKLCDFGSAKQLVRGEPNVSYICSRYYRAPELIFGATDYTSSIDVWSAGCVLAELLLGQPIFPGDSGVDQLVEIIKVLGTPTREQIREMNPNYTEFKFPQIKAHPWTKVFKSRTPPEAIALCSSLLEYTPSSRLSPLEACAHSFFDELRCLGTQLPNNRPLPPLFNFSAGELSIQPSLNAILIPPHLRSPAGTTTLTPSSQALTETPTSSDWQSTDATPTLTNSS
Description: as §1, §2, §3, §4, §5

IKK α = target: T12, IKK α (Homo sapiens, UniProt O15111)
T12 construct: purchased Millipore KinaseProfiler
Description: as §1, §2, §3, §4, §5

IR, activated = target: T13, IR, activated (Homo sapiens, UniProt P06213)
T13 construct: purchased Millipore KinaseProfiler
Description: as §1, §2, §3, §4, §5

Itk = target: T14, Itk (Homo sapiens, UniProt Q08881)
T14 construct: purchased Millipore KinaseProfiler
Description: as §1, §2, §3, §4, §5

JAK2 = target: T15, JAK2 (Homo sapiens, UniProt O60674)
T15 construct: purchased Millipore KinaseProfiler
Description: as §1, §2, §3, §4, §5

JNK1 α1 = target: T16, JNK1 α1 (Homo sapiens, UniProt P45983)
T16 construct: purchased Millipore KinaseProfiler
Description: as §1, §2, §3, §4, §5

KDR = target: T17, KDR (Homo sapiens, UniProt P35968)
T17 construct: purchased Millipore KinaseProfiler
Description: as §1, §2, §3, §4, §5

MAPK1 = target: T18, MAPK1 (Homo sapiens, UniProt P27361)
T18 construct: purchased Millipore KinaseProfiler
Description: as §1, §2, §3, §4, §5

MAPKAP-K2 = target: T19, MAPKAP-K2 (Homo sapiens, UniProt P49137)
T19 construct: purchased Millipore KinaseProfiler
Description: as §1, §2, §3, §4, §5

MARK1 = target: T20, MARK1 (Homo sapiens, UniProt Q9P0L2)
T20 construct: purchased Millipore KinaseProfiler
Description: as §1, §2, §3, §4, §5

MEK1 = target: T21, MEK1 (Homo sapiens, UniProt Q02750)
T21 construct: purchased Millipore KinaseProfiler
Description: as §1, §2, §3, §4, §5

Met = target: T22, Met (Homo sapiens, UniProt P08581)
T22 construct: purchased Millipore KinaseProfiler
Description: as §1, §2, §3, §4, §5

NEK11 = target: T23, NEK11 (Homo sapiens, UniProt Q8NG66)
T23 construct: purchased Millipore KinaseProfiler
T23 sequence (Q8NG66 whole entry): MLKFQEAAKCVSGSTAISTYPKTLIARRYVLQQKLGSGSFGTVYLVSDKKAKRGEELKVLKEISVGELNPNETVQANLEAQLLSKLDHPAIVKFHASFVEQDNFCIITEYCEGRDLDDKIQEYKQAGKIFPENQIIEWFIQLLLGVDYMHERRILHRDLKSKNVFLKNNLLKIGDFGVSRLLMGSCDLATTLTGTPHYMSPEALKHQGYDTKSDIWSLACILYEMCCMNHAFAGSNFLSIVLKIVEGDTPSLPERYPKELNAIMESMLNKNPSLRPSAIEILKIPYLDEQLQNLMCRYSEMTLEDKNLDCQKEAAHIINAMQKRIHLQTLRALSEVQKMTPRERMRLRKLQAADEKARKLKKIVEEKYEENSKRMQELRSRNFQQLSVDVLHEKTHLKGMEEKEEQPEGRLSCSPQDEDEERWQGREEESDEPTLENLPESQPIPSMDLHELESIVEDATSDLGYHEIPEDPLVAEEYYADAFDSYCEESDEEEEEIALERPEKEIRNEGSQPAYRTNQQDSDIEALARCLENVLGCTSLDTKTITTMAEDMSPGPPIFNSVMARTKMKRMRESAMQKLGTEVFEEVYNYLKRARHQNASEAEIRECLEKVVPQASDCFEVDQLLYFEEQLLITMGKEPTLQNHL
Description: as §1, §2, §3, §4, §5

PDGFR α = target: T24, PDGFR α (Homo sapiens, UniProt P16234)
T24 construct: purchased Millipore KinaseProfiler
Description: as §1, §2, §3, §4, §5

PEK = target: T25, PEK (Homo sapiens, UniProt Q9NZJ5)
T25 construct: purchased Millipore KinaseProfiler
T25 sequence (Q9NZJ5 30-1116): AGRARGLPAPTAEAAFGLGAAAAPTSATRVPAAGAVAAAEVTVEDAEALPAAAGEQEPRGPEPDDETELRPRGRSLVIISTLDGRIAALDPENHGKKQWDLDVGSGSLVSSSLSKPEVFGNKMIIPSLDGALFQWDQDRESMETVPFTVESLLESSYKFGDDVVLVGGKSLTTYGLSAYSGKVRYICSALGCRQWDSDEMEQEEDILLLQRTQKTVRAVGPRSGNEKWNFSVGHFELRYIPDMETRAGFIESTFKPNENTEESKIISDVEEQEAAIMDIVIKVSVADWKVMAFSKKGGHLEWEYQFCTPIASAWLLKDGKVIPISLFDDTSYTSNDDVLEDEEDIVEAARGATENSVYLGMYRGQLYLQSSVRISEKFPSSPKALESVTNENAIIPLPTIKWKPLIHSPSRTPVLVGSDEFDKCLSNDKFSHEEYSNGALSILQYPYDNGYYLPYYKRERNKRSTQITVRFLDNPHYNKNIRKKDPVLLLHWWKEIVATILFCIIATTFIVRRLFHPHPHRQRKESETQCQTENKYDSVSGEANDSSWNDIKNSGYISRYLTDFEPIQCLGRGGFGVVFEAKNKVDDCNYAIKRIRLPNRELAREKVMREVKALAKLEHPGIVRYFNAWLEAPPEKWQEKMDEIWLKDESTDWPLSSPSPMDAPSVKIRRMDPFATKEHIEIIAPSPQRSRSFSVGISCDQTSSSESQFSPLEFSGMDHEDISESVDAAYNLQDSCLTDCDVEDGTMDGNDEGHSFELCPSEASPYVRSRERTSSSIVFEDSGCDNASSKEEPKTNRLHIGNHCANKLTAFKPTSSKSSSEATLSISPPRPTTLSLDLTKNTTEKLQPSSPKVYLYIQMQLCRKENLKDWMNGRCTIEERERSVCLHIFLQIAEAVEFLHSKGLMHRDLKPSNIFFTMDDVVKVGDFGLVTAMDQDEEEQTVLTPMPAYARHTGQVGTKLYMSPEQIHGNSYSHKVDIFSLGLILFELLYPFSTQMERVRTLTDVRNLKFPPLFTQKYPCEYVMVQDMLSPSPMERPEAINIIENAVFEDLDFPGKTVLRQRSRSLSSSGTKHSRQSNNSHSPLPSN
Description: as §1, §2, §3, §4, §5

PKB α = target: T26, PKB α (Homo sapiens, UniProt P31749)
T26 construct: purchased Millipore KinaseProfiler
Description: as §1, §2, §3, §4, §5

PKC α = target: T27, PKC α (Homo sapiens, UniProt P17252)
T27 construct: purchased Millipore KinaseProfiler
Description: as §1, §2, §3, §4, §5

PKC μ = target: T28, PKC μ (Homo sapiens, UniProt Q15139)
T28 construct: purchased Millipore KinaseProfiler
Description: as §1, §2, §3, §4, §5

Pim-1 = target: T29, Pim-1 (Homo sapiens, UniProt P11309)
T29 construct: purchased Millipore KinaseProfiler
T29 sequence (P11309 whole entry): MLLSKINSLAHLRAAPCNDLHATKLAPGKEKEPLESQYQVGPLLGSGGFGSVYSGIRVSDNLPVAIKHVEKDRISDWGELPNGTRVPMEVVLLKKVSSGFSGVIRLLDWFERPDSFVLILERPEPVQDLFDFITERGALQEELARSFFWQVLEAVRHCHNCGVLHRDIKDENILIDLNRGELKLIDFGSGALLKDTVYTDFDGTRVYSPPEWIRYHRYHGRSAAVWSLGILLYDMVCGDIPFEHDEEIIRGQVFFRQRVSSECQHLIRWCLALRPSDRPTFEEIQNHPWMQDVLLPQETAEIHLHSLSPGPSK
Description: as §1, §2, §3, §4, §5

Plk1 = target: T30, Plk1 (Homo sapiens, UniProt P53350)
T30 construct: purchased Millipore KinaseProfiler
Description: as §1, §2, §3, §4, §5

ROCK-I = target: T31, ROCK-I (Homo sapiens, UniProt Q13464)
T31 construct: purchased Millipore KinaseProfiler
Description: as §1, §2, §3, §4, §5

Ron = target: T32, Ron (Homo sapiens, UniProt Q04912)
T32 construct: purchased Millipore KinaseProfiler
Description: as §1, §2, §3, §4, §5

Rsk1 = target: T33, Rsk1 (Homo sapiens, UniProt Q15418)
T33 construct: purchased Millipore KinaseProfiler
Description: as §1, §2, §3, §4, §5

SAPK2a(T106M) = target: T34, SAPK2a(T106M) (Homo sapiens, UniProt Q16539, T106M)
T34 construct: purchased Millipore KinaseProfiler
T34 sequence (Q16539 whole entry T106M): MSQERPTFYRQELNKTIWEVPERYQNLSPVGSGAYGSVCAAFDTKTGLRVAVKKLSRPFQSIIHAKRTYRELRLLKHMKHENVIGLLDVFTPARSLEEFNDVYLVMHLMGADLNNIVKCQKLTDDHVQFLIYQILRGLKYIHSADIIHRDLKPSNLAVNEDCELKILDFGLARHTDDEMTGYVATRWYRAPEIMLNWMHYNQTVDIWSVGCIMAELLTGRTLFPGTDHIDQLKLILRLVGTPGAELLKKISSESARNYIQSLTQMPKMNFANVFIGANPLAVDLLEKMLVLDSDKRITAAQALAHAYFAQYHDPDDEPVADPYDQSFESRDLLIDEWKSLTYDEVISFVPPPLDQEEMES
Description: as §1, §2, §3, §4, §5

SGK = target: T35, SGK (Homo sapiens, UniProt O00141)
T35 construct: purchased Millipore KinaseProfiler
Description: as §1, §2, §3, §4, §5

Syk = target: T36, Syk (Homo sapiens, UniProt P43405)
T36 construct: purchased Millipore KinaseProfiler
Description: as §1, §2, §3, §4, §5

Tie2 = target: T37, Tie2 (Homo sapiens, UniProt Q02763)
T37 construct: purchased Millipore KinaseProfiler
T37 sequence (Q02763 23-1124): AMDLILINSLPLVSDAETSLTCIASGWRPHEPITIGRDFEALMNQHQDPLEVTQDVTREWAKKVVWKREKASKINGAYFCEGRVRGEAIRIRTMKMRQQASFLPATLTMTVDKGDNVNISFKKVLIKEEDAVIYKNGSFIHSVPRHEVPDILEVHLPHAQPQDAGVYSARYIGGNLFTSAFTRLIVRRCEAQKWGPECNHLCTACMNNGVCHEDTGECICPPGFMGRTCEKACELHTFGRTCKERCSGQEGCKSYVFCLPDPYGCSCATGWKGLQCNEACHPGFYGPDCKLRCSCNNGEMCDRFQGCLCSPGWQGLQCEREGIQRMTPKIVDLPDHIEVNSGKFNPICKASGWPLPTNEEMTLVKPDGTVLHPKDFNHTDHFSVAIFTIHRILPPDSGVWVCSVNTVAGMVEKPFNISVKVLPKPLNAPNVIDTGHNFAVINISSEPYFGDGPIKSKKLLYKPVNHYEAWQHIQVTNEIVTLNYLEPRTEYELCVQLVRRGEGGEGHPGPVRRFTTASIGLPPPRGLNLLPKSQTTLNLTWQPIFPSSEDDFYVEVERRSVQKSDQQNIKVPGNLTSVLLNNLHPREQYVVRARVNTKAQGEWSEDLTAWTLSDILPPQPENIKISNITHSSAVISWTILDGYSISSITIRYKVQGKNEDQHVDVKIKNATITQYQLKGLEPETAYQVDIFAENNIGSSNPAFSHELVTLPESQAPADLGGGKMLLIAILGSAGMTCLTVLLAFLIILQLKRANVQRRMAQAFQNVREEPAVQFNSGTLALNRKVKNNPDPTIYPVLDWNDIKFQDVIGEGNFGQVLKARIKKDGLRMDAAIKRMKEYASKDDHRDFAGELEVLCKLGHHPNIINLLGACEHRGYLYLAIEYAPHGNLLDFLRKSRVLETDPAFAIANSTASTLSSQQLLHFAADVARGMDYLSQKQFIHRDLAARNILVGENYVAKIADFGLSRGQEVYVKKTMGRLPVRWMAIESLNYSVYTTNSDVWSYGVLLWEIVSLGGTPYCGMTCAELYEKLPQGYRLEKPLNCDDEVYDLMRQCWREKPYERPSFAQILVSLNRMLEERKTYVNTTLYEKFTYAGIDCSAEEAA
Description: as §1, §2, §3, §4, §5

c-RAF = target: T38, c-RAF (Homo sapiens, UniProt P04049)
T38 construct: purchased Millipore KinaseProfiler
Description: as §1, §2, §3, §4, §5

cKit = target: T39, cKit (Homo sapiens, UniProt P10721)
T39 construct: purchased Millipore KinaseProfiler
Description: as §1, §2, §3, §4, §5

mTOR = target: T40, mTOR (Homo sapiens, UniProt P42345)
T40 construct: purchased Millipore KinaseProfiler
Description: as §1, §2, §3, §4, §5

p70S6K = target: T41, p70S6K (Homo sapiens, UniProt P23443)
T41 construct: purchased Millipore KinaseProfiler
Description: as §1, §2, §3, §4, §5

O=C(N1CCCC1)N1CCC(n2cnc3c(-n4c(C(F)F)nc5ccccc54)nc(N4CCOCC4)nc32)CC1 [X-370]
Kinase activity (% of control) (ALK): 79 % of control | Kinase activity (% of control) (ASK1): 107 % of control | Kinase activity (% of control) (Axl): 106 % of control | Kinase activity (% of control) (CDK1/cyclinB): 97 % of control | Kinase activity (% of control) (CHK1): 74 % of control | Kinase activity (% of control) (CaMKI): 117 % of control | Kinase activity (% of control) (EGFR): 90 % of control | Kinase activity (% of control) (EphA1): 99 % of control | Kinase activity (% of control) (FGFR1): 108 % of control | Kinase activity (% of control) (Fyn): 97 % of control | Kinase activity (% of control) (GSK3 α): 94 % of control | Kinase activity (% of control) (IKK α): 95 % of control | Kinase activity (% of control) (IR, activated): 111 % of control | Kinase activity (% of control) (Itk): 106 % of control | Kinase activity (% of control) (JAK2): 109 % of control | Kinase activity (% of control) (JNK1 α1): 90 % of control | Kinase activity (% of control) (KDR): 90 % of control | Kinase activity (% of control) (MAPK1): 81 % of control | Kinase activity (% of control) (MAPKAP-K2): 95 % of control | Kinase activity (% of control) (MARK1): 89 % of control | Kinase activity (% of control) (MEK1): 109 % of control | Kinase activity (% of control) (Met): 113 % of control | Kinase activity (% of control) (NEK11): 95 % of control | Kinase activity (% of control) (PDGFR α): 121 % of control | Kinase activity (% of control) (PEK): 105 % of control | Kinase activity (% of control) (PKB α): 87 % of control | Kinase activity (% of control) (PKC α): 96 % of control | Kinase activity (% of control) (PKC μ): 98 % of control | Kinase activity (% of control) (Pim-1): 88 % of control | Kinase activity (% of control) (Plk1): 100 % of control | Kinase activity (% of control) (ROCK-I): 93 % of control | Kinase activity (% of control) (Ron): 111 % of control | Kinase activity (% of control) (Rsk1): 88 % of control | Kinase activity (% of control) (SAPK2a(T106M)): 102 % of control | Kinase activity (% of control) (SGK): 72 % of control | Kinase activity (% of control) (Syk): 85 % of control | Kinase activity (% of control) (Tie2): 88 % of control | Kinase activity (% of control) (c-RAF): 50 % of control | Kinase activity (% of control) (cKit): 104 % of control | Kinase activity (% of control) (mTOR): 47 % of control | Kinase activity (% of control) (p70S6K): 88 % of control
